Data: ChEMBL document CHEMBL1201862, “PubChem BioAssay data set” (2004)
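How tested: cells in 96-well plates exposed to compound for 48 hours at five concentrations. Here, GI50 denotes the concentration required for 50% inhibition of growth.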 Activity calls are given as the source filed them. No stated cut-off is given here; in the data, active = GI50 up to about 1.1 µM and inactive = higher.

How the values were obtained:
Experiment in all cases: growth of human tumour cells (NCI), 48 h
786-0 = tested on: 786-0
A498 = tested on: A498
A549 = tested on: A549
ACHN = tested on: ACHN
BT-549 = tested on: BT-549
CAKI-1 = tested on: CAKI-1
CCRF-CEM = tested on: CCRF-CEM
COLO 205 = tested on: COLO 205
DU-145 = tested on: DU-145
EKVX = tested on: EKVX
HCC 2998 = tested on: HCC 2998
HCT-116 = tested on: HCT-116
HCT-15 = tested on: HCT-15
HL-60 = tested on: HL-60
HOP-92 = tested on: HOP-92
HT-29 = tested on: HT-29
Hs-578T = tested on: Hs-578T
IGROV-1 = tested on: IGROV-1
K562 = tested on: K562
KM12 = tested on: KM12
LOX IMVI = tested on: LOX IMVI
M14 = tested on: M14
MCF7 = tested on: MCF7
MDA-MB-231 = tested on: MDA-MB-231
MDA-MB-435 = tested on: MDA-MB-435
MDA-N = tested on: MDA-N
MOLT-4 = tested on: MOLT-4
Malme-3M = tested on: Malme-3M
NCI-H226 = tested on: NCI-H226
NCI-H23 = tested on: NCI-H23
NCI-H460 = tested on: NCI-H460
NCI-H522 = tested on: NCI-H522
NCI/ADR-RES = tested on: NCI/ADR-RES
OVCAR-3 = tested on: OVCAR-3
OVCAR-4 = tested on: OVCAR-4
OVCAR-5 = tested on: OVCAR-5
OVCAR-8 = tested on: OVCAR-8
PC-3 = tested on: PC-3
RXF 393 = tested on: RXF 393
SF-268 = tested on: SF-268
SF-295 = tested on: SF-295
SF-539 = tested on: SF-539
SK-MEL-28 = tested on: SK-MEL-28
SK-MEL-2 = tested on: SK-MEL-2
SK-MEL-5 = tested on: SK-MEL-5
SK-OV-3 = tested on: SK-OV-3
SN12C = tested on: SN12C
SNB-19 = tested on: SNB-19
SNB-75 = tested on: SNB-75
SR = tested on: SR
SW-620 = tested on: SW-620
T47D = tested on: T47D
TK-10 = tested on: TK-10
U-251 = tested on: U-251
UACC-257 = tested on: UACC-257
UACC-62 = tested on: UACC-62
UO-31 = tested on: UO-31
HOP-62 = tested on: HOP-62
RPMI-8226 = tested on: RPMI-8226

`N#Cc1ccccc1NC(=O)C(O)C(O)C(O)C(O)C=O` (centres undefined) was tested, and the GI50 (786-0) was > 100 µM (inactive), the GI50 (A498) was > 100 µM (inactive) and the GI50 (A549) was > 100 µM (inactive). For the same compound, the GI50 (ACHN) was > 100 µM (inactive), the GI50 (BT-549) was > 100 µM (inactive) and the GI50 (CAKI-1) was > 100 µM (inactive). The GI50 (CCRF-CEM) was > 100 µM (inactive), the GI50 (COLO 205) was > 100 µM (inactive) and the GI50 (DU-145) was > 100 µM (inactive). The GI50 (EKVX) was > 100 µM (inactive), the GI50 (HCC 2998) was > 100 µM (inactive) and the GI50 (HCT-116) was > 100 µM (inactive). The GI50 (HCT-15) was over 100 µM, the GI50 (HL-60) was > 100 µM (inactive) and the GI50 (HOP-92) was > 100 µM (inactive). For the same compound, the GI50 (HT-29) was > 100 µM (inactive), the GI50 (Hs-578T) was > 100 µM (inactive) and the GI50 (IGROV-1) was > 100 µM (inactive). The GI50 (K562) was > 100 µM (inactive), the GI50 (KM12) was > 100 µM (inactive) and the GI50 (LOX IMVI) was > 100 µM (inactive). The GI50 (M14) was > 100 µM (inactive), the GI50 (MCF7) was > 100 µM (inactive) and the GI50 (MDA-MB-231) was > 100 µM (inactive). The GI50 (MDA-MB-435) was > 100 µM (inactive), the GI50 (MDA-N) was > 100 µM (inactive) and the GI50 (MOLT-4) was > 100 µM (inactive). For the same compound, the GI50 (Malme-3M) was > 100 µM (inactive), the GI50 (NCI-H226) was > 100 µM (inactive) and the GI50 (NCI-H23) was > 100 µM (inactive). The GI50 (NCI-H460) was > 100 µM (inactive), the GI50 (NCI-H522) was > 100 µM (inactive) and the GI50 (NCI/ADR-RES) was > 100 µM (inactive). For the same compound, the GI50 (OVCAR-3) was > 100 µM (inactive), the GI50 (OVCAR-4) was > 100 µM (inactive) and the GI50 (OVCAR-5) was > 100 µM (inactive). For the same compound, the GI50 (OVCAR-8) was > 100 µM (inactive), the GI50 (PC-3) was > 100 µM (inactive) and the GI50 (RXF 393) was > 100 µM (inactive). For the same compound, the GI50 (SF-268) was > 100 µM (inactive), the GI50 (SF-295) was > 100 µM (inactive) and the GI50 (SF-539) was > 100 µM (inactive). For the same compound, the GI50 (SK-MEL-28) was > 100 µM (inactive), the GI50 (SK-MEL-2) was > 100 µM (inactive) and the GI50 (SK-MEL-5) was > 100 µM (inactive). For the same compound, the GI50 (SK-OV-3) was > 100 µM (inactive), the GI50 (SN12C) was > 100 µM (inactive) and the GI50 (SNB-19) was > 100 µM (inactive). The GI50 (SNB-75) was > 100 µM (inactive), the GI50 (SR) was > 100 µM (inactive) and the GI50 (SW-620) was > 100 µM (inactive). For the same compound, the GI50 (T47D) was > 100 µM (inactive), the GI50 (TK-10) was > 100 µM (inactive) and the GI50 (U-251) was > 100 µM (inactive). The GI50 (UACC-257) was > 100 µM (inactive), the GI50 (UACC-62) was > 100 µM (inactive) and the GI50 (UO-31) was > 100 µM (inactive).
With `O=C(O)CCSC1=NCCN1` the GI50 (786-0) was > 100 µM (inactive), the GI50 (A498) was > 100 µM (inactive) and the GI50 (A549) was > 100 µM (inactive). The GI50 (ACHN) was > 100 µM (inactive), the GI50 (BT-549) was > 100 µM (inactive) and the GI50 (CAKI-1) was > 100 µM (inactive). For the same compound, the GI50 (CCRF-CEM) was 98.6 µM (inactive), the GI50 (COLO 205) was > 100 µM (inactive) and the GI50 (DU-145) was > 100 µM (inactive). The GI50 (EKVX) was > 100 µM (inactive), the GI50 (HCC 2998) was > 100 µM (inactive) and the GI50 (HCT-116) was > 100 µM (inactive). The GI50 (HCT-15) was over 100 µM, the GI50 (HL-60) was > 100 µM (inactive) and the GI50 (HOP-62) was > 100 µM (inactive). The GI50 (HOP-92) was > 100 µM (inactive), the GI50 (HT-29) was > 100 µM (inactive) and the GI50 (Hs-578T) was > 100 µM (inactive). The GI50 (IGROV-1) was > 100 µM (inactive), the GI50 (K562) was > 100 µM (inactive) and the GI50 (KM12) was > 100 µM (inactive). The GI50 (LOX IMVI) was > 100 µM (inactive), the GI50 (M14) was > 100 µM (inactive) and the GI50 (MCF7) was > 100 µM (inactive). The GI50 (MDA-MB-231) was > 100 µM (inactive), the GI50 (MDA-MB-435) was > 100 µM (inactive) and the GI50 (MDA-N) was > 100 µM (inactive). The GI50 (Malme-3M) was > 100 µM (inactive), the GI50 (NCI-H226) was > 100 µM (inactive) and the GI50 (NCI-H23) was > 100 µM (inactive). For the same compound, the GI50 (NCI-H460) was > 100 µM (inactive), the GI50 (NCI-H522) was > 100 µM (inactive) and the GI50 (NCI/ADR-RES) was > 100 µM (inactive). For the same compound, the GI50 (OVCAR-3) was > 100 µM (inactive), the GI50 (OVCAR-4) was > 100 µM (inactive) and the GI50 (OVCAR-5) was > 100 µM (inactive). The GI50 (OVCAR-8) was > 100 µM (inactive), the GI50 (PC-3) was > 100 µM (inactive) and the GI50 (RPMI-8226) was > 100 µM (inactive). The GI50 (RXF 393) was > 100 µM (inactive), the GI50 (SF-268) was > 100 µM (inactive) and the GI50 (SF-295) was > 100 µM (inactive). For the same compound, the GI50 (SK-MEL-28) was > 100 µM (inactive), the GI50 (SK-MEL-2) was > 100 µM (inactive) and the GI50 (SK-MEL-5) was > 100 µM (inactive). For the same compound, the GI50 (SK-OV-3) was > 100 µM (inactive), the GI50 (SN12C) was > 100 µM (inactive) and the GI50 (SNB-19) was > 100 µM (inactive). The GI50 (SNB-75) was > 100 µM (inactive), the GI50 (SR) was > 100 µM (inactive) and the GI50 (SW-620) was > 100 µM (inactive). For the same compound, the GI50 (T47D) was > 100 µM (inactive), the GI50 (TK-10) was > 100 µM (inactive) and the GI50 (U-251) was > 100 µM (inactive). For the same compound, the GI50 (UACC-257) was 64 µM (inactive), the GI50 (UACC-62) was > 100 µM (inactive) and the GI50 (UO-31) was > 100 µM (inactive).
